Experimental data published in PubChem BioAssay AID1963853 (Molecular Pharmacology Branch, DTP, NCI, 2024).

Test system: 266295-075-R-J1-PDC spheroid viability
Test: Anticancer human tumor 266295-075-R-J1-PDC patient-derived head and neck squamous carcinoma cell line growth inhibition [POLQ]
Settings: spheroids with HUVEC and MSC; for IC50: curve of first compound; for viability, T/C: stronger effect = lower value
Protocol: Multicellular complex tumor spheroid response to Polymerase (POL) inhibitors (novobiocin, ART-558, RP6685) in combination with a variety of drugs and investigational agents in selected tumor cell lines
The POL inhibitors (novobiocin, ART-558, and RP6685) were evaluated both individually and in combination with standard of care and investigational anticancer small molecules within a complex spheroid model of solid tumors. . Complex spheroids include a stromal component modeled by human endothelial cells (HUVEC) and fibroblasts modeled by human mesenchymal stem cells (MSCs). The concentration ranges selected for each drug and investigational agent were based upon clinically achievable concentrations if the clinical Cmax of the agent was known.
Compounds. The drugs and investigational agents: novobiocin (NSC847541), ART-558 (NSC835418), RP-6685 (NSC848927), peposertib (NSC802822), ceralasertib (NSC780249), elimusertib (NSC800525), camonsertib (NSC841442), AZD-1390 (NSC803789), olaparib (NSC753686), talazoparib (NSC767125), rucaparib (NSC756644), sotorasib (NSC818433), MRTX-1133 (NSC836407), SN-38 (NSC673596), topotecan (NSC609699), epotoside (NSC141540), doxorubicin (NSC123127), gemcitabine (NSC613327), 5-fluorouracil (NSC19893), paclitaxel (NSC125973), vemurafenib (NSC761431), MSA-2 (NSC828583), SN-011 (NSC837082), adavosertib (NSC754352), prexasertib (NSC758257), carboplatin (NSC241240) and oxaliplatin (NSC266046), were obtained from the National Cancer Institute (NCI) Developmental Therapeutics Program Chemical Repository (21). The FDA-approved anticancer drug set is available from the Developmental Therapeutics Program at https://dtp.cancer.gov/organization/dscb/obtaining/. […] The stock solutions were prepared in dimethyl sulfoxide (DMSO, Sigma-Aldrich, St. Louis, MO, cat. D2650), except for the platinum compounds which were prepared in saline (Quality Biological, Gaithersburg, MD, cat. 114-055-101), at 800-fold the tested concentration and stored at -70 degrees C prior to their use. All drugs and investigational agents were tested over a range starting from a high concentration at or near the clinical Cmax and decreasing in half-log increments. If the clinical Cmax for an agent had not been determined, the highest concentration tested was 10 microM, except for SN-38, which was tested at a high concentration of 1 microM.
Cell Culture. All cells were maintained in an incubator at 37 degrees C and 5% CO2 with 95% humidity. The PDC lines were cultured according to standard operating procedures established by the NCI PDMR (https://pdmr.cancer.gov). Table 3 of the manuscript, lists the cell lines along with the number of the three cell types plated to form the mct-spheroids and media for tumor cell growth. After thawing, all PDC lines, except 997537-175-T-J1-PDC and 415267-285-R-J2-PDC, were cultured in Matrigel-coated flasks prepared with a working solution of 1X Ham's F-12 nutrient mix, without supplementation (Thermo Fisher Scientific, cat. 11765054), 100 U/mL penicillin-streptomycin (Thermo Fisher Scientific, cat. 15140122), and 2.5% Matrigel (Corning Inc., Corning, NY, cat. 354248) for the first three passages. The two PDC lines 997537-175-T-J1-PDC and 415267-285-R-J2-PDC were cultured on uncoated flasks. The 857933-349-R-J2-PDC line was cultured in 6C/Colon 1B media containing advanced DMEM/F-12 (Thermo Fisher Scientific, cat. 12634028), 10 mM HEPES (Thermo Fisher Scientific, cat. 15630080), 1X GlutaMAX supplement (Thermo Fisher Scientific, cat. 35050061), 0.1 mg/mL primocin (InvivoGen, San Diego, CA, cat. ant-pm-2), 10% defined fetal bovine serum, heat inactivated (HyClone Laboratories Inc., Logan, UT, cat. SH30070.03HI), 50% L-WRN conditioned media (ATCC, cat. CRL-3276), 1.25 mM N-Acetyl-L-cysteine (Sigma-Aldrich, cat. A9165), 10 mM nicotinamide (Sigma-Aldrich, cat. N0636), 1X B-27 supplement (Thermo Fisher Scientific, cat. 17504044), 1X N-2 supplement (Thermo Fisher Scientific, cat. […]
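Note: spheroids exposed to compounds for seven days before readout.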

## CC1COCCN1c1cc(C2(O)CC3CCC(C2)O3)c2cnn(-c3ccn[nH]3)c2n1 (configuration not stated) + Nc1ccc(C#CCN(C(=O)Cc2ncc(C(F)(F)F)cc2C(F)(F)F)c2ccc(F)cc2)nn1
Second compound 0.0316 µM
  IC50: 996 nM
Second compound 0.1 µM
  IC50: 591 nM
Second compound 0.316 µM
  IC50: 324 nM
Second compound 1 µM
  IC50: 903 nM
Second compound 3.16 µM
  IC50: 831 nM
Second compound 10 µM
  IC50: 706 nM
Second compound 0.0316 µM, first compound 0.0316 µM
  viability, T/C: 80.4%
Second compound 0.0316 µM, first compound 0.1 µM
  viability, T/C: 112%
Second compound 0.0316 µM, first compound 0.316 µM
  viability, T/C: 67.6%
Second compound 0.0316 µM, first compound 1 µM
  viability, T/C: 54.4%
Second compound 0.0316 µM, first compound 3.16 µM
  viability, T/C: 42.5%
Second compound 0.0316 µM, first compound 10 µM
  viability, T/C: 32.3%
Second compound 0.1 µM, first compound 0.0316 µM
  viability, T/C: 96.9%
Second compound 0.1 µM, first compound 0.1 µM
  viability, T/C: 85.9%
Second compound 0.1 µM, first compound 0.316 µM
  viability, T/C: 53.5%
Second compound 0.1 µM, first compound 1 µM
  viability, T/C: 46.6%
Second compound 0.1 µM, first compound 3.16 µM
  viability, T/C: 39.2%
Second compound 0.1 µM, first compound 10 µM
  viability, T/C: 29.9%
Second compound 0.316 µM, first compound 0.0316 µM
  viability, T/C: 94.9%
Second compound 0.316 µM, first compound 0.1 µM
  viability, T/C: 100%
Second compound 0.316 µM, first compound 0.316 µM
  viability, T/C: 50.2%
Second compound 0.316 µM, first compound 1 µM
  viability, T/C: 51.2%
Second compound 0.316 µM, first compound 3.16 µM
  viability, T/C: 38.3%
Second compound 0.316 µM, first compound 10 µM
  viability, T/C: 26.9%
Second compound 1 µM, first compound 0.0316 µM
  viability, T/C: 86.2%
Second compound 1 µM, first compound 0.1 µM
  viability, T/C: 66.3%
Second compound 1 µM, first compound 0.316 µM
  viability, T/C: 63.1%
Second compound 1 µM, first compound 1 µM
  viability, T/C: 46.9%
Second compound 1 µM, first compound 3.16 µM
  viability, T/C: 42.5%
Second compound 1 µM, first compound 10 µM
  viability, T/C: 25.7%
Second compound 3.16 µM, first compound 0.0316 µM
  viability, T/C: 83.9%
Second compound 3.16 µM, first compound 0.1 µM
  viability, T/C: 84.1%
Second compound 3.16 µM, first compound 0.316 µM
  viability, T/C: 63.7%
Second compound 3.16 µM, first compound 1 µM
  viability, T/C: 46.8%
Second compound 3.16 µM, first compound 3.16 µM
  viability, T/C: 36.8%
Second compound 3.16 µM, first compound 10 µM
  viability, T/C: 27.8%
Second compound 10 µM, first compound 0.0316 µM
  viability, T/C: 78.4%
Second compound 10 µM, first compound 0.1 µM
  viability, T/C: 75.7%
Second compound 10 µM, first compound 0.316 µM
  viability, T/C: 69.8%
Second compound 10 µM, first compound 1 µM
  viability, T/C: 41.2%
Second compound 10 µM, first compound 3.16 µM
  viability, T/C: 30.2%
Second compound 10 µM, first compound 10 µM
  viability, T/C: 26.7%
